One substance from publication PMC2065875, “A Point Mutation in a Herpesvirus Polymerase Determines Neuropathogenicity” (PLoS Pathogens, 2007) can be followed below.

Assay [1] addresses T1, EHV-1 Pol D752 + pORF18 (viral DNA polymerase holoenzyme) (Equine herpesvirus type 1 (strain AB4P), UniProt P28858, D752N).
T1 construct: gene 30
The following applies: poly(dA)-oligo(dT) template, [3H]dTTP; 4 μl translated Pol plus 200 fmol pORF18 in 20 μl; 0.5% DMSO.

In assay [2] the target is T2, EHV-1 Pol D752 + pORF18 (viral DNA polymerase holoenzyme) (Equine herpesvirus type 1 (strain AB4P), UniProt P28858).
T2 construct: gene 30; Pol (D752) from pTM1-ORF30 made by in vitro transcription-translation (TNT T7 coupled reticulocyte lysate, not purified); pORF18 purified, baculovirus-expressed; with DNA polymerase processivity factor
T2 sequence (P28958 whole entry): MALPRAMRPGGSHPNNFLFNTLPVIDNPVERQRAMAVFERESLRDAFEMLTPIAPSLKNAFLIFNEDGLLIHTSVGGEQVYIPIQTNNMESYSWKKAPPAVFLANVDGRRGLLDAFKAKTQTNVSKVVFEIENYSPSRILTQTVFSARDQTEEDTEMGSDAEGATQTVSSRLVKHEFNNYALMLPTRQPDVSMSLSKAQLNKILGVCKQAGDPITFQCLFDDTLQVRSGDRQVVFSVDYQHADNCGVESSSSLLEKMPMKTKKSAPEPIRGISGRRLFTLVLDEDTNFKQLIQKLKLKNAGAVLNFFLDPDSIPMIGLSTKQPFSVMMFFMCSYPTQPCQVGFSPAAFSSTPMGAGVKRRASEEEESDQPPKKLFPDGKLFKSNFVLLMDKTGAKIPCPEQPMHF
T2 sequence (P28858 whole entry): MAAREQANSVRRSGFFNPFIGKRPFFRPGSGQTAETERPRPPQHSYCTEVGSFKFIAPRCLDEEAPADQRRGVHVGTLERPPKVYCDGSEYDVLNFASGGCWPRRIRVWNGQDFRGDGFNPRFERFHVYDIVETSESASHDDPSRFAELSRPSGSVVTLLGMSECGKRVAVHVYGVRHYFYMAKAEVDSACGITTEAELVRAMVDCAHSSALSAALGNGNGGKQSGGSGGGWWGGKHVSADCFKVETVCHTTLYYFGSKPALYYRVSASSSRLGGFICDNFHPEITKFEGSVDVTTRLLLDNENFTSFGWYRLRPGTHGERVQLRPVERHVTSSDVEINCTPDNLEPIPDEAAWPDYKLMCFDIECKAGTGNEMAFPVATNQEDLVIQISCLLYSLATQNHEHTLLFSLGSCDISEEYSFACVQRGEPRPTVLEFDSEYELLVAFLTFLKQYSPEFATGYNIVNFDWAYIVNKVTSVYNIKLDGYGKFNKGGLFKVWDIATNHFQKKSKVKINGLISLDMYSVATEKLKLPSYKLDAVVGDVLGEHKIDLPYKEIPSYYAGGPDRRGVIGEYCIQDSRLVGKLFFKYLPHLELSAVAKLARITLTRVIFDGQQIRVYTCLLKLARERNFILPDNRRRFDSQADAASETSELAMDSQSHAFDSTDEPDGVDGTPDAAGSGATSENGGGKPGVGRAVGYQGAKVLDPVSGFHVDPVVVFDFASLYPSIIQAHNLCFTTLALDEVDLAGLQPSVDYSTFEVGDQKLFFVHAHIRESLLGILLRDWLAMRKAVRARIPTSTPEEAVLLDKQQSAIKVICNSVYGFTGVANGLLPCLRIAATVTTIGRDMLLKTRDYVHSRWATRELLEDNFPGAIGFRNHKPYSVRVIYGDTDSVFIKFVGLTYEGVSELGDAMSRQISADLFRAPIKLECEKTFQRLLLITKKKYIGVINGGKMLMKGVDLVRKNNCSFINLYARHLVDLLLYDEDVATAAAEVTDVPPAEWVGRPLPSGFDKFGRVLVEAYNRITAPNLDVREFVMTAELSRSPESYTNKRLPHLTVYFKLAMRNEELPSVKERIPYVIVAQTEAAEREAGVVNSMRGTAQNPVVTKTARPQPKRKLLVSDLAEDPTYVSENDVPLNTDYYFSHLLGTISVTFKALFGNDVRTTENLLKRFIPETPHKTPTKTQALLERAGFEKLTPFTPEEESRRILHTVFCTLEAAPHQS
The experiment in a line: [3H]dTTP incorporation into poly(dA)-oligo(dT), in vitro translated Pol. In kind it is biochemical. Particulars: poly(dA)-oligo(dT) template, 4 μl translated Pol plus 200 fmol pORF18 in 20 μl, 0.5% DMSO.

T1 sequence (P28858 whole entry, stated change not applied): as the sequence (P28858 whole entry) above
T1 sequence (P28958 whole entry, stated change not applied, further chain): as the sequence (P28958 whole entry) above

Broadly, the IC50 is the concentration at which inhibition is half-maximal. On to aphidicolin, for which the results for the IC50 in assay [1] and in assay [2] were 900 nM and 3100 nM, respectively.
